Measurements as given in patent US20240208994A1, “PLASMA KALLIKREIN INHIBITORS” (Merck Sharp & Dohme LLC, priority 2021, published 2024).

Legend:
Human plasma kallikrein = target: T1, Human plasma kallikrein (Homo sapiens, UniProt P03952); experiment: Plasma Kallikrein Assay; format: biochemical; conditions: purified Human plasma kallikrein 0.5 nM, substrate Acetyl-K-P-R-AFC, HEPES pH 7.4, fluorescence 405 Ex/510 Em; read-out: PKal IC50
T1 construct: yields a heavy chain (371 amino acids) and a light chain (248 amino acids); purchased Enzyme Research Laboratories
Method in brief: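 Purified human plasma kallikrein (0.5 nM) with fluorogenic Acetyl-K-P-R-AFC at ≤0.2 Km in pH 7.4 HEPES with NaCl, CaCl2 and PEG 8000, after enzyme–inhibitor equilibration. Fluorescence read at 405/510 nm under linear conditions. IC50 from four-parameter fit; Ki by Cheng-Prusoff.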

human factor XIa = human factor XIa (Homo sapiens, UniProt P03951); experiment: Factor XIa Assay; format: biochemical; conditions: human factor XIa 0.04 nM, 30 min pre-incubation at 25° C., substrate GPR-AFC, pH 7.4, 60 min incubation; read-out: FXIa IC50
human factor XIa, sequence (P03951 388-625 limits assumed): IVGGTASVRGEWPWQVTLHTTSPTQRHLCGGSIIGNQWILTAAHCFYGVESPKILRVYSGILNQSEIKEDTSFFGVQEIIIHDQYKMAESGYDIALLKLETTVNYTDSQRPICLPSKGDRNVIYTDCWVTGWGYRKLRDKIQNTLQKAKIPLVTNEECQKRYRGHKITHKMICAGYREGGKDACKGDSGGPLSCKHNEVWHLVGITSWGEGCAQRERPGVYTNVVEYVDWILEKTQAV
human factor XIa, sequence (P03951 19-387 partner limits assumed): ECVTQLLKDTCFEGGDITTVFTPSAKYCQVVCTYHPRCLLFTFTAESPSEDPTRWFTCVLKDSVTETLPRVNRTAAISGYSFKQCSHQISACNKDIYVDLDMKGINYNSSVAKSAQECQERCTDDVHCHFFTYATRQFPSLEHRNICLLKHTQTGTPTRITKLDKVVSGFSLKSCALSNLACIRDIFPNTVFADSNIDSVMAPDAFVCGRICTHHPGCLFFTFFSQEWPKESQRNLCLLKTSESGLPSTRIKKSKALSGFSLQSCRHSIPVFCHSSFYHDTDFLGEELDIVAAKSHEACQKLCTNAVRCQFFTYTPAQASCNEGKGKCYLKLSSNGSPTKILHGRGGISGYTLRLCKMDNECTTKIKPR

T1 sequence (P03952 391-638 limits assumed): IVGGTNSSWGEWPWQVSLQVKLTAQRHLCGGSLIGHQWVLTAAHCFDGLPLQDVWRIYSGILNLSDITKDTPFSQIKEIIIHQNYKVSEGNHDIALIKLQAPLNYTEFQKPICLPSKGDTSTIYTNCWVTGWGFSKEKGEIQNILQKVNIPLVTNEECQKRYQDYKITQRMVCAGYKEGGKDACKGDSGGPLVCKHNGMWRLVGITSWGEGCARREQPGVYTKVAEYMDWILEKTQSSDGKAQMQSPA
T1 sequence (P03952 20-390 partner limits assumed): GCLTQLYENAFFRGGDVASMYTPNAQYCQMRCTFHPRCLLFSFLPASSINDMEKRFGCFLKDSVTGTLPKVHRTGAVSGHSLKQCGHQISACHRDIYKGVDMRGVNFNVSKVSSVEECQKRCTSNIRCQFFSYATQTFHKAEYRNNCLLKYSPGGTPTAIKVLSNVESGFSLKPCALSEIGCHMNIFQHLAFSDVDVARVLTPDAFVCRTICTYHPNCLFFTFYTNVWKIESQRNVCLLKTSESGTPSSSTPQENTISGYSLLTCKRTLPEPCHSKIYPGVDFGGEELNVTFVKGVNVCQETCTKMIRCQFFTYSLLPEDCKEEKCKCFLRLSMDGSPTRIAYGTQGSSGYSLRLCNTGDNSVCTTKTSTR

| SMILES | IC50 (Human plasma kallikrein) | IC50 (human factor XIa) |
| --- | --- | --- |
| CC1(C)C(c2cc(N)n(CC(=O)N3CC[C@@]4(C3)OC(=O)Nc3ccc(Cl)c(F)c34)n2)C1(C)C [Example 53, (R)-1′-(2-(5-Amino-3-(2,2,3,3-tetramethylcyclopropyl)-1H-pyrazol-1-yl)acetyl)-6-chloro-5-fluorospiro[benzo[d][1,3]oxazine-4,3′-pyrrolidin]-2(1H)-one] | 11.5 nM | 320 nM |
| Cc1cc(-c2cc(N)n(CC(=O)N3CC[C@@]4(C3)OC(=O)Nc3ccc(Cl)c(F)c34)n2)no1 [Example 60, (R)-1′-(2-(5-Amino-3-(5-methylisoxazol-3-y1)-1H-pyrazol-1-yl)acetyl)-6-chloro-5-fluorospiro[benzo[d][1,3]oxazine-4,3′-pyrrolidin]-2(1H)-one] | 24.3 nM | 862 nM |
| Nc1cc(C2C3COCC32)nn1CC(=O)N1CC[C@@]2(C1)OC(=O)Nc1ccc(Cl)c(F)c12 (stereo partly drawn) [Example 61, (4R)-1′-(2-(5-Amino-3-(3-oxabicyclo[3.1.0]hexan-6-y1)-1H-pyrazol-1-yl)acetyl)-6-chloro-5-fluorospiro[benzo[d][1,3]oxazine-4,3′-pyrrolidin]-2(1H)-one] | 27.2 nM | 791 nM |
| COc1ccccc1-c1cc(N)n(CC(=O)N2CC[C@@]3(C2)OC(=O)Nc2ccc(Cl)c(F)c23)n1 [Example 62, (R)-1′-(2-(5-Amino-3-(2-methoxyphenyl)-1H-pyrazol-1-yl)acetyl)-6-chloro-5-fluorospiro[benzo[d][1,3]oxazine-4,3′-pyrrolidin]-2(1H)-one] | 6.6 nM | 505 nM |
| N#Cc1ccc(-c2cc(N)n(CC(=O)N3CC[C@@]4(C3)OC(=O)Nc3ccc(Cl)c(F)c34)n2)cc1 [Example 63, (R)-4-(5-Amino-1-(2-(6-chloro-5-fluoro-2-oxo-1,2-dihydrospiro[benzo[d][1,3]oxazine-4,3′-pyrrolidin]-l′-xl)-2-oxoethyl)-1H-pyrazol-3-yl)benzonitrile] | 13.9 nM | 613 nM |
| Nc1cc(-c2cccc(F)c2)nn1CC(=O)N1CC[C@@]2(C1)OC(=O)Nc1ccc(Cl)c(F)c12 [Example 64, (R)-1′-(2-(5-Amino-3-(3-fluorophenyl)-1H-pyrazol-1-yl)acetyl)-6-chloro-5-fluorospiro[benzo[d] [1,3]oxazine-4,3′-pyrrolidin]-2(1H)-one] | 17 nM | 556 nM |
| Nc1cc(-c2ccc(Cl)cc2)nn1CC(=O)N1CC[C@@]2(C1)OC(=O)Nc1ccc(Cl)c(F)c12 [Example 65, (R)-1′-(2-(5-Amino-3-(4-chlorophenyl)-1H-pyrazol-1-yl)acetyl)-6-chloro-5-fluorospiro[benzo[d] [1,3]oxazine-4,3′-pyrrolidin]-2(1H)-one] | 21.9 nM | 1560 nM |
| Nc1cc(-c2ccc(OC(F)F)cc2)nn1CC(=O)N1CC[C@@]2(C1)OC(=O)Nc1ccc(Cl)c(F)c12 [Example 66, (R)-1′-(2-(5-Amino-3-(4-(difluoromethoxy)pheny1)-1H-pyrazol-1-yl)acetyl)-6-chloro-5-fluorospiro[benzo[d] [1,3]oxazine-4,3′-pyrrolidin]-2(1H)-one] | 10.3 nM | 640 nM |
| N#Cc1cccc(-c2cc(N)n(CC(=O)N3CC[C@@]4(C3)OC(=O)Nc3ccc(Cl)c(F)c34)n2)c1 [Example 67, (R)-3-(5-Amino-1-(2-(6-chloro-5-fluoro-2-oxo-1,2-dihydrospiro[benzo[d] [1,3]oxazine-4,3'-pyrrolidin]-1'-y1)-2-oxoethyl)-1H-pyrazol-3-y1)benzonitrile] | 12 nM | 433 nM |

The next compounds have a lower IC50 (Human plasma kallikrein) than those just listed; values first:

| IC50 (Human plasma kallikrein) | IC50 (human factor XIa) | SMILES |
| --- | --- | --- |
| 5.1 nM | 289 nM | Cc1ccccc1-c1cc(N)n(CC(=O)N2CC[C@@]3(C2)OC(=O)Nc2ccc(Cl)c(F)c23)n1 [Example 54, (R)-1′-(2-(5-Amino-3-(o-tolyl)-1H-pyrazol-1-yl)acetyl)-6-chloro-5-fluorospiro[benzo[d][1,3]oxazine-4,3′-pyrrolidin]-2(1H)-one] |
| 2.5 nM | 287 nM | Nc1cc(-c2ccccc2OC(F)(F)F)nn1CC(=O)N1CC[C@@]2(C1)OC(=O)Nc1ccc(Cl)c(F)c12 [Example 55, (R)-1′-(2-(5-Amino-3-(2-(trifluoromethoxy)phenyl)-1H-pyrazol-1-yl)acetyl)-6-chloro-5-fluorospiro[benzo[d][1,3]oxazine-4,3′-pyrrolidin]-2(1H)-one] |
| 4.6 nM | 165 nM | Nc1cc(-c2ccccc2F)nn1CC(=O)N1CC[C@@]2(C1)OC(=O)Nc1ccc(Cl)c(F)c12 [Example 56, (R)-1′-(2-(5-Amino-3-(2-fluorophenyl)-1H-pyrazol-1-yl)acetyl)-6-chloro-5-fluorospiro[benzo[d][1,3]oxazine-4,3′-pyrrolidin]-2(1H)-one] |
| 2.5 nM | 190 nM | Nc1cc(-c2ccccc2Br)nn1CC(=O)N1CC[C@@]2(C1)OC(=O)Nc1ccc(Cl)c(F)c12 [Example 57, (R)-1′-(2-(5-Amino-3-(2-bromophenyl)-1H-pyrazol-1-yl)acetyl)-6-chloro-5-fluorospiro[benzo[d][1,3]oxazine-4,3′-pyrrolidin]-2(1H)-one] |
| 5.7 nM | 430 nM | Nc1cc(-c2ccccc2I)nn1CC(=O)N1CC[C@@]2(C1)OC(=O)Nc1ccc(Cl)c(F)c12 [Example 58, (R)-1′-(2-(5-Amino-3-(2-iodophenyl)-1H-pyrazol-1-yl)acetyl)-6-chloro-5-fluorospiro[benzo[d][1,3]oxazine-4,3′-pyrrolidin]-2(1H)-one] |
| 3.7 nM | 195 nM | Nc1cc(-c2c(F)cc(F)cc2F)nn1CC(=O)N1CC[C@@]2(C1)OC(=O)Nc1ccc(Cl)c(F)c12 [Example 59, (R)-1′-(2-(5-Amino-3-(2,4,6-trifluorophenyl)-1H-pyrazol-1-yl)acetyl)-6-chloro-5-fluorospiro[benzo[d][1,3]oxazine-4,3′-pyrrolidin]-2(1H)-one] |
